Source: paper PMC9032790
Values after ≈ are worked out from the molar mass of the structure shown. Marks after values point to notes of the source that are not given here.

Assays:
5C3-RAb [1] = test: THC-H-OVA-based heterologous ic-ELISA with 5C3-RAb; assay type: binding, mouse; settings: for cross-reactivity rate: ic-ELISA, IC50 of clothianidin / IC50 of analogue × 100%
1F7-RAb [2] = test: IMI-H-OVA-based heterologous ic-ELISA with 1F7-RAb; assay type: binding, mouse; settings: for cross-reactivity rate: ic-ELISA, IC50 of clothianidin / IC50 of analogue × 100%
[3] = test system: PcAb [22] (anti-clothianidin antibody); design: method as in PMID 23527939; settings: ic-ELISA, cited from earlier work; for cross-reactivity rate: IC50 of clothianidin / IC50 of analogue × 100%
[4] = test system: McAb [23] (anti-clothianidin antibody); design: method as in PMID 23202236; settings: ic-ELISA, cited from earlier work; for cross-reactivity rate: IC50 of clothianidin / IC50 of analogue × 100%
[5] = test system: McAb [35] (anti-clothianidin antibody); design: method as in PMID 25173856; settings: ic-ELISA, cited from earlier work; for cross-reactivity rate: IC50 of clothianidin / IC50 of analogue × 100%
5C3-McAb = test: heterologous ic-ELISA with 5C3-McAb; settings: for cross-reactivity rate: IC50 of clothianidin / IC50 of analogue × 100%
1F7-McAb = test: heterologous ic-ELISA with 1F7-McAb; settings: for cross-reactivity rate: IC50 of clothianidin / IC50 of analogue × 100%
1F7-RAb [6] = test: non-competitive SPR with immobilized 1F7-RAb; assay type: binding, mouse
5C3-RAb [7] = test: non-competitive SPR with immobilized 5C3-RAb; assay type: binding, mouse
1F7-RAb [8] = test: 1F7-RAb-based GICA, selectivity and sensitivity in standard solution; assay type: binding, mouse; settings: analyte at 1000 μg/L, judged with the naked eye
[9] = test system: six potential antibodies from hybridoma culture supernatants; test: homologous ic-ELISA hybridoma screening (CLO-H-OVA); settings: free clothianidin 50 μg/L; CLO-H-OVA 5 μg/mL
[10] = 8 neonicotinoids at the same concentration of 50 nM
[11] = SPR, 1:1 binding kinetic model, read-out: KD (dissociation equilibrium constant)

Structure (SMILES) | cross-reactivity rate (5C3-RAb [1]) | cross-reactivity rate (1F7-RAb [2]) | cross-reactivity rate [3] | cross-reactivity rate [4] | cross-reactivity rate [5] | cross-reactivity rate (5C3-McAb) | cross-reactivity rate (1F7-McAb) | also measured
O=[N+]([O-])/N=C1\NCCN1Cc1ccc(Cl)nc1 [C00003] | <0.1% | <0.1% | 0.8% | <0.1% | <0.03% | <0.1% | <0.1% | 
C/C(=N\C#N)N(C)Cc1ccc(Cl)nc1 [C00004] | <0.1% | <0.1% | <0.05% | <0.1% | <0.03% | <0.1% | <0.1% | 
N#C/N=C1\SCCN1Cc1ccc(Cl)nc1 [C00005] | <0.1% | <0.1% | <0.05% | <0.1% | <0.03% | <0.1% | <0.1% | 
CN1COCN(Cc2cnc(Cl)s2)/C1=N/[N+](=O)[O-] [C00006] | <0.1% | <0.1% | <0.05% | <0.1% | <0.03% | <0.1% | <0.1% | 
CCN(Cc1ccc(Cl)nc1)/C(=C\[N+](=O)[O-])NC [C00007] | <0.1% | <0.1% | <0.05% | <0.1% | <0.03% | <0.1% | <0.1% | 
O=[N+]([O-])/N=C1/NCCN1Cc1cnc(Cl)s1 [C00008] | <0.1% | <0.1% | <0.05% | <0.1% | <0.03% | <0.1% | <0.1% | 
CN/C(=N\[N+](=O)[O-])NCc1cnc(Cl)s1 [clothianidin] | 100% | 100% | 100% | 100% | 100% | 100% | 100% | IC50 value (5C3-RAb [1]; heterologous ic-ELISA, 5 μg/mL of THC-H-OVA, listed as C00001): 5.22 ng/mL (≈ 0.0209 µM); IC50 value (1F7-RAb [2]; heterologous ic-ELISA, 1.25 μg/mL of IMI-H-OVA): 4.62 ng/mL (≈ 0.0185 µM); SPR binding selectivity signal (1F7-RAb [6]; [10]): high signal; Kd (1F7-RAb [6]; [11]): 3.24 nM; SPR binding selectivity signal (5C3-RAb [7]; [10]): high signal; Kd (5C3-RAb [7]; [11]): 7.96 nM; GICA cross-reaction test, effect on T line (1F7-RAb [8]): complete disappearance of the T line; IC50 value [3]: 46 ng/mL (≈ 0.184 µM); IC50 value [4]: 4.4 ng/mL (≈ 0.0176 µM); IC50 value [5]: 25.6 ng/mL (≈ 0.103 µM); IC50 value (5C3-McAb): 13.16 ng/mL (≈ 0.0527 µM); IC50 value (1F7-McAb): 5.38 ng/mL (≈ 0.0215 µM); inhibition of binding of CLO-H-OVA to antibodies [9]: less than 11%
CN/C(=N/CC1CCOC1)N[N+](=O)[O-] (stereo not shown) [dinotefuran] | 56% | no obvious cross-reaction | 11.8 ^c % | 64% | 47.8% | 42.4% | <0.1% | cross-reactivity rate (1F7-RAb [2]; listed as C00002): <0.1%
